In assay [1] the test system is Zika virus. As to the kind of experiment: EC50 is reported via analysis of immunofluorescence staining. The assay has been performed by Icahn School of Medicine at Mount Sinai. It is filed as functional, organism-based, Chlorocebus sabaeus, VeroE6/TMPRSS2. The conditions noted are these: Zika virus; for EC90: P-gp concentration 2 uM, P-gp inhibitor Elacidar.
For assay [2], the system named is dengue virus type 2. In words: Functional immunofluorescence assay to measure dose dependent changes in antiviral-drug inhibitory efficacy against Dengue virus type 2 Thailand/16681/84 in Vero E6/TMPRSS2 cells (cotreated with P-gp inhibitor, Elacridar). Cells are treated with antiviral candidates that are serially diluted, following infection, cells are fixed. EC50 is reported via analysis of immunofluorescence staining. The assay has been performed by Icahn School of Medicine at Mount Sinai. The assay is classed as organism-based, Chlorocebus sabaeus, VeroE6/TMPRSS2. The conditions noted are these: Dengue virus.

In assay [3] the test system is dengue virus type 2. As to the kind of experiment: Functional assay to measure dose dependent changes in antiviral-drug inhibitory efficacy against Dengue virus type 2 New Guinea C in Vero E6 miRFP670 cells (cotreated with P-gp inhibitor, CP100356). Cells are treated with antiviral candidates that are serially diluted, following infection, cells are fixed. EC50 is reported via analysis of fluorescence intensity using high-content imager. The …. The assay is classed as organism-based, Chlorocebus sabaeus, Vero C1008. The conditions noted are these: Dengue virus.

Assay [4] relates to Zika virus. In words: Functional CPE-based assay to measure dose dependent changes in antiviral-drug inhibitory efficacy against Zika virus MR766 in Vero E6 miRFP670 cells. Cells are treated with antiviral candidates that are serially diluted. EC50 is reported via analysis of MTS assay as a readout of CPE. The assay has been performed by KU Leuven. The conditions noted are these: Zika virus; for EC50: Vero C1008. It is filed as organism-based, Chlorocebus sabaeus, Vero C1008.

Assay [5] concerns Zika virus. In words: Functional immunofluorescence assay to measure dose dependent changes in antiviral-drug inhibitory efficacy against Zika virus PRVABC59 in Vero E6/TMPRSS2 cells. Cells are treated with antiviral candidates that are serially diluted, following infection, cells are fixed. EC50 is reported via analysis of immunofluorescence staining. The assay has been performed by Icahn School of Medicine at Mount Sinai. The assay is classed as organism-based, Chlorocebus sabaeus.

As to `CC(C)Cc1nc2c(C(=O)Nc3ccc4c(c3)CNC4)cc(Br)cc2[nH]1`, the concentration giving a half-maximal response (EC50) was above 5.56 µM with Zika virus [1] (VeroE6/TMPRSS2), above 5.56 µM in the assay with dengue virus type 2 [2] (VeroE6/TMPRSS2), above 0.781 µM in the assay on dengue virus type 2 [3] (Vero C1008) and above 50 µM with Zika virus [4]. In addition, the EC90 is above 5.56 µM in the assay with Zika virus [1] (VeroE6/TMPRSS2, Baseline response 0 %, Hill slope -10.435, Maximum measured 137.671 %, Maximum response 100 %, Minimum measured 68.671 %, R squared 0.096); above 5.56 µM in the assay with dengue virus type 2 [2] (VeroE6/TMPRSS2, Maximum measured 192.149 %, Minimum measured 144.973 %, P-gp concentration 2 uM, P-gp inhibitor Elacidar); above 0.781 µM in the assay with dengue virus type 2 [3] (Vero C1008, Maximum measured 122.11 %, Minimum measured 121.973 %, P-gp concentration 500 nM, P-gp inhibitor CP100356); above 50 µM in the assay with Zika virus [4] (Vero C1008, Baseline response 0 %, Hill slope 1.82, Maximum measured 17.962 %, Maximum response 100 %, Minimum measured -5.537 %, R squared 0.817).

Consider `O=C(Nc1ccc2c(c1)CNC2)c1cc(Cl)cc(-n2cccc2)c1`, for which the EC50 was above 5.56 µM with Zika virus [1] (VeroE6/TMPRSS2), 15.1 µM in the assay on dengue virus type 2 [2] (VeroE6/TMPRSS2), 18.1 µM in the assay on dengue virus type 2 [3] (Vero C1008) and above 50 µM in the assay on Zika virus [4]. The EC90 with Zika virus [1] (VeroE6/TMPRSS2, Maximum measured 131.342 %, Minimum measured 97.756 %) was above 5.56 µM; in the assay with Zika virus [1] (VeroE6/TMPRSS2, Baseline response 0 %, Hill slope -0.378, Maximum measured 125.075 %, Maximum response 100 %, Minimum measured 52.976 %, R squared 0.223), above 5.56 µM; with dengue virus type 2 [2] (VeroE6/TMPRSS2, Baseline response 0 %, Hill slope -12.71, Maximum measured 168.092 %, Maximum response 100 %, Minimum measured 22.727 %, P-gp concentration 2 uM, R squared 0.109, P-gp inhibitor Elacidar), above 16.7 µM; with dengue virus type 2 [3] (Vero C1008, Baseline response 0 %, Hill slope -1.567, Maximum measured 91.76 %, Maximum response 100 %, Minimum measured 2.031 %, P-gp concentration 500 nM, R squared 0.898, P-gp inhibitor CP100356), above 50 µM; with Zika virus [4] (Vero C1008, Baseline response 0 %, Hill slope 0.167, Maximum measured 17.974 %, Maximum response 100 %, Minimum measured 0.845 %, R squared 0.067), above 50 µM.

On to `Clc1ccc2[nH]cc(Cc3ccc(-c4nn[nH]n4)cc3)c2c1`, for which the EC50 is 39.4 µM with Zika virus [1] (VeroE6/TMPRSS2), 24.6 µM in the assay on dengue virus type 2 [2] (VeroE6/TMPRSS2), above 50 µM in the assay on dengue virus type 2 [3] (Vero C1008) and above 50 µM in the assay with Zika virus [4]. For the same compound, the concentration for an effect of 90% (EC90) with Zika virus [1] (VeroE6/TMPRSS2, Baseline response 0 %, Hill slope -2.483, Maximum measured 171.794 %, Maximum response 100 %, Minimum measured 35.965 %, R squared 0.343) is above 50 µM; with dengue virus type 2 [2] (VeroE6/TMPRSS2), 34 µM; in the assay on dengue virus type 2 [3] (Vero C1008), above 50 µM; in the assay with Zika virus [4] (Vero C1008, Maximum measured 1.604 %, Minimum measured -1.05 %) it was above 50 µM.

Regarding `O=C(Nc1ccc2c(c1)CNC2)c1cc(Cl)cc(C2CC2)c1`, the EC50 in the assay with Zika virus [1] (VeroE6/TMPRSS2) is above 5.56 µM; in the assay with dengue virus type 2 [2] (VeroE6/TMPRSS2) it was above 50 µM; in the assay on dengue virus type 2 [3] (Vero C1008), above 12.5 µM; in the assay on Zika virus [4] it was below 0.391 µM. Moreover, the EC90 with Zika virus [1] (VeroE6/TMPRSS2, Baseline response 0 %, Hill slope -0.303, Maximum measured 133.833 %, Maximum response 100 %, Minimum measured 73.063 %, R squared 0.118) was above 5.56 µM; with dengue virus type 2 [2] (VeroE6/TMPRSS2, Baseline response 0 %, Hill slope -0.218, Maximum measured 127.968 %, Maximum response 100 %, Minimum measured 35.242 %, P-gp concentration 2 uM, R squared 0.016, P-gp inhibitor Elacidar) it was above 50 µM; in the assay with dengue virus type 2 [3] (Vero C1008, Baseline response 0 %, Hill slope -18.192, Maximum measured 115.18 %, Maximum response 100 %, Minimum measured 61.318 %, P-gp concentration 500 nM, R squared 0.219, P-gp inhibitor CP100356), above 12.5 µM; in the assay with Zika virus [4] (Vero C1008, Baseline response 0 %, Hill slope -0.16, Maximum measured 19.084 %, Maximum response 100 %, Minimum measured -10.525 %, R squared 0.01), below 0.391 µM.

As to `O=C(Nc1ccc2c(c1)CNC2)c1cc(Br)cc2[nH]c(-c3ccccc3)nc12`, the EC50 was above 5.56 µM in the assay on Zika virus [1] (VeroE6/TMPRSS2), above 50 µM in the assay with dengue virus type 2 [2] (VeroE6/TMPRSS2), above 50 µM in the assay on dengue virus type 2 [3] (Vero C1008) and below 0.391 µM in the assay with Zika virus [4]. In addition, the EC90 in the assay with Zika virus [1] (VeroE6/TMPRSS2, Maximum measured 77.487 %, Minimum measured 34.255 %) is above 5.56 µM; in the assay with dengue virus type 2 [2] (VeroE6/TMPRSS2, Maximum measured 303.364 %, Minimum measured 144.726 %, P-gp concentration 2 uM, P-gp inhibitor Elacidar), above 50 µM; in the assay with dengue virus type 2 [3] (Vero C1008, Baseline response 0 %, Hill slope -0.881, Maximum measured 119.709 %, Maximum response 100 %, Minimum measured 77.354 %, P-gp concentration 500 nM, R squared 0.142, P-gp inhibitor CP100356) it was above 50 µM; in the assay on Zika virus [4] (Vero C1008, Baseline response 0 %, Hill slope -0.169, Maximum measured 22.843 %, Maximum response 100 %, Minimum measured -3.22 %, R squared 0.045), below 0.391 µM.

For `O=C(Nc1ccc2c(c1)CNCCC2)c1cc(Cl)cc2[nH]ncc12`, the EC50 in the assay with Zika virus [1] (VeroE6/TMPRSS2) was 47.6 µM; in the assay with dengue virus type 2 [2] (VeroE6/TMPRSS2), 26 µM; in the assay on dengue virus type 2 [3] (Vero C1008), above 1.56 µM; in the assay on Zika virus [4], above 50 µM. In addition, the concentration for an effect of 90% (EC90) in the assay on Zika virus [1] (VeroE6/TMPRSS2, Baseline response 0 %, Hill slope -16.818, Maximum measured 150.619 %, Maximum response 100 %, Minimum measured 30.484 %, R squared 0.241) was above 50 µM; in the assay with dengue virus type 2 [2] (VeroE6/TMPRSS2), 45 µM; in the assay with dengue virus type 2 [3] (Vero C1008, Baseline response 0 %, Hill slope 9.827, Maximum measured 112.729 %, Maximum response 100 %, Minimum measured 86.907 %, P-gp concentration 500 nM, R squared 0.124, P-gp inhibitor CP100356), above 1.56 µM; with Zika virus [4] (Vero C1008, Baseline response 0 %, Hill slope 0.723, Maximum measured 1.937 %, Maximum response 100 %, Minimum measured -1.308 %, R squared 0.05), above 50 µM; in the assay on Zika virus [4] (Vero C1008, Maximum measured 5.01 %, Minimum measured -5.78 %), above 50 µM.

Regarding `O=C(Nc1cc(Cl)cc(C(=O)NCc2ccc(-c3nnn[nH]3)cc2)c1)OCc1ccccc1`, the concentration giving a half-maximal response (EC50) was above 16.7 µM with Zika virus [1] (VeroE6/TMPRSS2), 24.8 µM in the assay with dengue virus type 2 [2] (VeroE6/TMPRSS2), above 50 µM in the assay with dengue virus type 2 [3] (Vero C1008) and above 50 µM with Zika virus [4]. The EC90 with Zika virus [1] (VeroE6/TMPRSS2, Maximum measured 73.474 %, Minimum measured 51.372 %) was above 16.7 µM; in the assay on dengue virus type 2 [2] (VeroE6/TMPRSS2) it was 40.9 µM; in the assay with dengue virus type 2 [3] (Vero C1008, Maximum measured 125.704 %, Minimum measured 70.659 %, P-gp concentration 500 nM, P-gp inhibitor CP100356), above 50 µM; in the assay on Zika virus [4] (Vero C1008, Baseline response 0 %, Hill slope 2.99, Maximum measured 29.669 %, Maximum response 100 %, Minimum measured 0.824 %, R squared 0.934), above 50 µM.

In the case of `CC(C)(C)NC(=O)[C@H](Nc1cccc(-c2nn[nH]n2)c1)c1cc(Cl)cc(NC(=O)OCc2ccccc2)c1`, the EC50 in the assay with Zika virus [1] (VeroE6/TMPRSS2) is 37.4 µM; with dengue virus type 2 [2] (VeroE6/TMPRSS2), above 50 µM; with dengue virus type 2 [3] (Vero C1008), 50 µM; in the assay on Zika virus [4], 49.8 µM. Moreover, the EC90 with Zika virus [1] (VeroE6/TMPRSS2, Baseline response 0 %, Hill slope -8.55, Maximum measured 97.768 %, Maximum response 77.157 %, Minimum measured 5.982 %, R squared 0.78) is 48.4 µM; in the assay on dengue virus type 2 [2] (VeroE6/TMPRSS2, Maximum measured 98.938 %, Minimum measured 28.549 %, P-gp concentration 2 uM, P-gp inhibitor Elacidar) it was above 50 µM; in the assay with dengue virus type 2 [3] (Vero C1008, Baseline response 0 %, Hill slope -29.373, Maximum measured 114.47 %, Maximum response 100 %, Minimum measured 52.367 %, P-gp concentration 500 nM, R squared 0.626, P-gp inhibitor CP100356) it was above 50 µM; in the assay on Zika virus [4] (Vero C1008, Baseline response 0 %, Hill slope 4.346, Maximum measured 50.323 %, Maximum response 100 %, Minimum measured -0.582 %, R squared 0.944) it was above 50 µM.

With `CC(C)c1nc2c(C(=O)Nc3ccc4c(c3)CNC4)cc(Br)cc2[nH]1`, the EC50 in the assay with Zika virus [1] (VeroE6/TMPRSS2) is above 5.56 µM; in the assay on dengue virus type 2 [2] (VeroE6/TMPRSS2), above 16.7 µM; in the assay on dengue virus type 2 [3] (Vero C1008), above 3.12 µM; with Zika virus [4], below 0.391 µM. In addition, the EC90 was above 5.56 µM in the assay with Zika virus [1] (VeroE6/TMPRSS2, Baseline response 0 %, Hill slope 0.282, Maximum measured 117.995 %, Maximum response 100 %, Minimum measured 67.231 %, R squared 0.042); above 16.7 µM in the assay on dengue virus type 2 [2] (VeroE6/TMPRSS2, Maximum measured 259.996 %, Minimum measured 97.005 %, P-gp concentration 2 uM, P-gp inhibitor Elacidar); above 3.12 µM in the assay on dengue virus type 2 [3] (Vero C1008, Maximum measured 127.324 %, Minimum measured 101.275 %, P-gp concentration 500 nM, P-gp inhibitor CP100356); below 0.391 µM in the assay on Zika virus [4] (Vero C1008, Baseline response 0 %, Hill slope -0.56, Maximum measured 41.831 %, Maximum response 100 %, Minimum measured -11.106 %, R squared 0.026).

As for `O=C(Nc1cc(Cl)cc(C(=O)Nc2cccc(-c3nnn[nH]3)c2)c1)OCc1ccccc1`, the results for the EC50 in the assay on Zika virus [1] (VeroE6/TMPRSS2), in the assay on Zika virus [5] (VeroE6/TMPRSS2) and in the assay on dengue virus type 2 [2] (VeroE6/TMPRSS2) were 2.68 µM, above 50 µM and 48.9 µM, respectively. Besides, the EC90 was above 16.7 µM in the assay with Zika virus [1] (VeroE6/TMPRSS2, Baseline response 0 %, Hill slope -0.321, Maximum measured 94.477 %, Maximum response 100 %, Minimum measured 40.195 %, R squared 0.392); above 50 µM in the assay on Zika virus [5] (VeroE6/TMPRSS2, Maximum measured 198.65 %, Minimum measured 79.352 %); above 50 µM with dengue virus type 2 [2] (VeroE6/TMPRSS2, Baseline response 0 %, Hill slope -12.435, Maximum measured 130.492 %, Maximum response 60 %, Minimum measured 25.847 %, P-gp concentration 2 uM, R squared 0.033, P-gp inhibitor Elacidar).
